Data set [1] deals with MV-IC323-EGFP. Conditions: for IC50: 72 h.
For data set [2] the following is noted: rat, in vivo.
The target of data set [3] is HPIV3 envelope glycoproteins (Human parainfluenza 3 virus, UniProt P06828). It is filed as cell-based, Human parainfluenza virus type 3. Conditions: fusion assay with HPIV3 envelope glycoproteins; for IC50: read-out: IC50 nM, in vitro efficacy; for IC90: read-out: IC90 nM, in vitro efficacy.
The conditions of data set [4]: in vivo; cited from earlier work.
Data set [5] concerns wild type MV G954. The conditions noted are these: read-out: IC50, inhibition of MV entry (plaque reduction); wt MV G954, Vero-SLAM cells.
Procedure: Vero-SLAM cell monolayers were infected with wild type MV G954 in the presence MV HRC peptides at the indicated peptide concentrations. Viral entry was assessed by plaque reduction assay. […] Each point represents the mean (±standard error) of four experiments. […] Vero-SLAM cell monolayers were infected with wild type MV-IC323-EGFP. After 90 minutes, medium with the indicated peptide concentrations was added. Viral spread was assessed by using a fluorescent readout of the EGFP after 72 hours. […] Each point represents the mean (±standard deviation) of a representative experiment.
Vero-SLAM monolayer cells were incubated with 40-50 PFU of wild type MV G954 in the presence of various concentrations of peptides. After 90 minutes, 2× minimal essential medium containing 10% FBS was mixed with 1% avicell and added to the dishes. The plates were then incubated at 37° C. for 72 h. After removing the medium overlay, the cells were immunostained for plaque detection. The number of plaques in the control (no peptide) and experimental wells were counted under a dissecting stereoscope.
The inhibitory activities of MV HRC 1, MV HRC 2, MV HRC 3 and MV HRC 4 (FIG. 1) against wt MV G954 were assessed in plaque reduction assays (FIG. 2A).

HPIV3 envelope glycoproteins, sequence (P06828 110-539 limits assumed): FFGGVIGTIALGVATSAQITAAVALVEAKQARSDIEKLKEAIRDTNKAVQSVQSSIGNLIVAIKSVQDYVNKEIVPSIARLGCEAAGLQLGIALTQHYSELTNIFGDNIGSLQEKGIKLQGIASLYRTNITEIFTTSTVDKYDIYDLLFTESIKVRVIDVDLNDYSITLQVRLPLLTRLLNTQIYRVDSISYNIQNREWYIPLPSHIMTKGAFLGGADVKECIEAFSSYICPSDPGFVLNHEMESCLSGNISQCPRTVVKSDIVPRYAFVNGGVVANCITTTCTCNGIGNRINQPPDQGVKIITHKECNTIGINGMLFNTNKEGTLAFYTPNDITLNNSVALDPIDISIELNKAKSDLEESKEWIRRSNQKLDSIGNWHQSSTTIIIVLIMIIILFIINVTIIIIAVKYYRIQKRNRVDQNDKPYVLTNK
HPIV3 envelope glycoproteins, sequence (P06828 19-109 partner limits assumed): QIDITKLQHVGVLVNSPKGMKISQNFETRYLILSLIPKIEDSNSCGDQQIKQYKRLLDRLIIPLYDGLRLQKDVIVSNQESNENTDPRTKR

For `CC[C@H](C)[C@H](NC(=O)[C@H](C)NC(=O)[C@H](CC(N)=O)NC(=O)CNC(=O)[C@H](CC(C)C)NC(=O)[C@H](CC(N)=O)NC(=O)[C@@H](NC(=O)CNC(=O)[C@@H](NC(=O)[C@H](CC(=O)O)NC(=O)[C@H](CC(C)C)NC(=O)[C@H](CCCNC(=N)N)NC(=O)[C@H](CCC(=O)O)NC(=O)[C@H](CC(C)C)NC(=O)[C@H](CO)NC(=O)[C@@H](NC(=O)[C@@H]1CCCN1C(=O)[C@@H]1CCCN1C(C)=O)[C@@H](C)CC)C(C)C)[C@@H](C)O)C(=O)N[C@@H](C)C(=O)N[C@@H](CCCCN)C(=O)N[C@@H](CC(C)C)C(=O)N[C@@H](CCC(=O)O)C(=O)N[C@@H](CC(=O)O)C(=O)N[C@@H](C)C(=O)N[C@@H](CCCCN)C(=O)N[C@@H](CCC(=O)O)C(=O)N[C@@H](CC(C)C)C(=O)N[C@@H](CC(C)C)C(=O)N[C@@H](CCC(=O)O)C(=O)N[C@@H](CO)C(=O)N[C@@H](CO)C(=O)N[C@@H](CC(=O)O)C(=O)N[C@@H](CCC(N)=O)C(=O)N[C@H](C(=O)N[C@@H](CC(C)C)C(=O)N[C@@H](CCCNC(=N)N)C(=O)NCC(=O)N[C@@H](CO)C(=O)NCC(=O)N[C@@H](CO)C(=O)NCC(=O)N[C@@H](CSC1=CC(=O)N(CCCC(=O)NCCOCCOCCOCCOCCC(=O)NCCNCCOC2CCC3(C)C(=CCC4C3CCC3(C)C(C(C)CCCC(C)C)CCC43)C2)C1=O)C(N)=O)[C@@H](C)CC` (some centres unmarked) [MV HRC2], the IC50 in data set [1] was around 54 nM. In data set [2], the “presence in the brain / CNS localization” value is reported as “a small fraction of the administered peptides was present” and the “presence in the serum” value is “a small fraction of the administered peptides was present”.
Turning to “Ac-VALDPIDISIVLNKIKSDLEESKEWIRRSNKILDSI-GSGSG-C(PEG4-palm)-NH2 (SEQ ID NO: 10) [VIKI-PEG4-palm]”, in data set [3], the concentration for half-maximal inhibition (IC50) was determined as 400 nM and the IC90 is above 1000 nM.
Turning to `CC[C@H](C)[C@H](NC(=O)[C@H](C)NC(=O)[C@H](CC(N)=O)NC(=O)CNC(=O)[C@H](CC(C)C)NC(=O)[C@H](CC(N)=O)NC(=O)[C@@H](NC(=O)CNC(=O)[C@@H](NC(=O)[C@H](CC(=O)O)NC(=O)[C@H](CC(C)C)NC(=O)[C@H](CCCNC(=N)N)NC(=O)[C@H](CCC(=O)O)NC(=O)[C@H](CC(C)C)NC(=O)[C@H](CO)NC(=O)[C@@H](NC(=O)[C@@H]1CCCN1C(=O)[C@@H]1CCCN1C(C)=O)[C@@H](C)CC)C(C)C)[C@@H](C)O)C(=O)N[C@@H](C)C(=O)N[C@@H](CCCCN)C(=O)N[C@@H](CC(C)C)C(=O)N[C@@H](CCC(=O)O)C(=O)N[C@@H](CC(=O)O)C(=O)N[C@@H](C)C(=O)N[C@@H](CCCCN)C(=O)N[C@@H](CCC(=O)O)C(=O)N[C@@H](CC(C)C)C(=O)N[C@@H](CC(C)C)C(=O)N[C@@H](CCC(=O)O)C(=O)N[C@@H](CO)C(=O)N[C@@H](CO)C(=O)N[C@@H](CC(=O)O)C(=O)N[C@@H](CCC(N)=O)C(=O)N[C@H](C(=O)N[C@@H](CC(C)C)C(=O)N[C@@H](CCCNC(=N)N)C(=O)NCC(=O)N[C@@H](CO)C(=O)NCC(=O)N[C@@H](CO)C(=O)NCC(=O)N[C@@H](CSC1=CC(=O)N(CCCC(=O)NCCOCCOCCOCCOCCC(=O)NCCN(CCNC(=O)CCOCCOCCOCCOCCNC(=O)CCCN2C(=O)C=C(SC[C@H](NC(=O)CNC(=O)[C@H](CO)NC(=O)CNC(=O)[C@H](CO)NC(=O)CNC(=O)[C@H](CCCNC(=N)N)NC(=O)[C@H](CC(C)C)NC(=O)[C@@H](NC(=O)[C@H](CCC(N)=O)NC(=O)[C@H](CC(=O)O)NC(=O)[C@H](CO)NC(=O)[C@H](CO)NC(=O)[C@H](CCC(=O)O)NC(=O)[C@H](CC(C)C)NC(=O)[C@H](CC(C)C)NC(=O)[C@H](CCC(=O)O)NC(=O)[C@H](CCCCN)NC(=O)[C@H](C)NC(=O)[C@H](CC(=O)O)NC(=O)[C@H](CCC(=O)O)NC(=O)[C@H](CC(C)C)NC(=O)[C@H](CCCCN)NC(=O)[C@H](C)NC(=O)[C@@H](NC(=O)[C@H](C)NC(=O)[C@H](CC(N)=O)NC(=O)CNC(=O)[C@H](CC(C)C)NC(=O)[C@H](CC(N)=O)NC(=O)[C@@H](NC(=O)CNC(=O)[C@@H](NC(=O)[C@H](CC(=O)O)NC(=O)[C@H](CC(C)C)NC(=O)[C@H](CCCNC(=N)N)NC(=O)[C@H](CCC(=O)O)NC(=O)[C@H](CC(C)C)NC(=O)[C@H](CO)NC(=O)[C@@H](NC(=O)[C@@H]3CCCN3C(=O)[C@@H]3CCCN3C(C)=O)[C@@H](C)CC)C(C)C)[C@@H](C)O)[C@@H](C)CC)[C@@H](C)CC)C(N)=O)C2=O)CCOC2CCC3(C)C(=CCC4C3CCC3(C)C(C(C)CCCC(C)C)CCC43)C2)C1=O)C(N)=O)[C@@H](C)CC` (some centres unmarked) [MV HRC4], the IC50 in data set [1] is around 55 nM.
On to “Ac-VALDPIDISIVLNKIKSDLEESKEWIRRSNKILDSI-GSGSG-C(PEG4-Ursolic)-NH2 (SEQ ID NO: 15) [VIKI-PEG4-Ursolic]”, for which, in data set [3], the IC50 turned out to be 200 nM and the IC90 is above 1000 nM.
For enfuvirtide, the “distribution in the CNS” value in data set [4] is recorded as “negligible distribution in the CNS”.
Regarding “Ac-VALDPIDISIVLNKIKSDLEESKEWIRRSNKILDSI-GSGSG-C(PEG4-C20)-NH2 (SEQ ID NO: 12) [VIKI-PEG4-C20]”, in data set [3], the IC50 stood at 75 nM and the IC90 was 900 nM.
As to “Ac-VALDPIDISIVLNKIKSDLEESKEWIRRSNKILDSI-GSGSG-C(PEG4-C30)-NH2 (SEQ ID NO: 13) [VIKI-PEG4-C30]”, in data set [3], the IC50 came out at 40 nM and the IC90 turned out to be 800 nM.
`CC[C@H](C)[C@H](NC(=O)[C@H](C)NC(=O)[C@H](CC(N)=O)NC(=O)CNC(=O)[C@H](CC(C)C)NC(=O)[C@H](CC(N)=O)NC(=O)[C@@H](NC(=O)CNC(=O)[C@@H](NC(=O)[C@H](CC(=O)O)NC(=O)[C@H](CC(C)C)NC(=O)[C@H](CCCNC(=N)N)NC(=O)[C@H](CCC(=O)O)NC(=O)[C@H](CC(C)C)NC(=O)[C@H](CO)NC(=O)[C@@H](NC(=O)[C@@H]1CCCN1C(=O)[C@@H]1CCCN1C(C)=O)[C@@H](C)CC)C(C)C)[C@@H](C)O)C(=O)N[C@@H](C)C(=O)N[C@@H](CCCCN)C(=O)N[C@@H](CC(C)C)C(=O)N[C@@H](CCC(=O)O)C(=O)N[C@@H](CC(=O)O)C(=O)N[C@@H](C)C(=O)N[C@@H](CCCCN)C(=O)N[C@@H](CCC(=O)O)C(=O)N[C@@H](CC(C)C)C(=O)N[C@@H](CC(C)C)C(=O)N[C@@H](CCC(=O)O)C(=O)N[C@@H](CO)C(=O)N[C@@H](CO)C(=O)N[C@@H](CC(=O)O)C(=O)N[C@@H](CCC(N)=O)C(=O)N[C@H](C(=O)N[C@@H](CC(C)C)C(=O)N[C@@H](CCCNC(=N)N)C(=O)NCC(=O)N[C@@H](CO)C(=O)NCC(=O)N[C@@H](CO)C(=O)NCC(=O)N[C@@H](CSCC(N)=O)C(N)=O)[C@@H](C)CC` [MV HRC1]: in data set [1], the “reduction of viral infection (fluorescence level)” value is reported as “neither MV HRC 1 nor MV HRC 3 reduced viral infection”. The IC50 in data set [5] is around 7000 nM.
Regarding “Ac-VALDPIDISIVLNKIKSDLEESKEWIRRSNKILDSI-GSGSG-C(PEG4-Betulinic)-NH2 (SEQ ID NO: 14) [VIKI-PEG4-Betulinic]”, in data set [3], the IC50 is 550 nM and the IC90 was above 1000 nM.

The record behind these values is patent publication US10172961B2 (priority 2014, dated 2019).
